Measured values published in US5438056A (priority 1993, dated 1995).
Where two headings read alike, the source gives them in different places.

Key:
[1] = molecular target: cholesterol ester hydrolase (Homo sapiens, UniProt P19835); assay: biochemical
[2] = system: cholesterol absorption; assay: animal or person; assay type: in vivo, normal rat
[3] = Rattus norvegicus, po, 6 h, read-out: % Decrease ^14 C Chol. Absorption at 6 hr in normal rat

cholesterol ester hydrolase, sequence (P19835 21-753): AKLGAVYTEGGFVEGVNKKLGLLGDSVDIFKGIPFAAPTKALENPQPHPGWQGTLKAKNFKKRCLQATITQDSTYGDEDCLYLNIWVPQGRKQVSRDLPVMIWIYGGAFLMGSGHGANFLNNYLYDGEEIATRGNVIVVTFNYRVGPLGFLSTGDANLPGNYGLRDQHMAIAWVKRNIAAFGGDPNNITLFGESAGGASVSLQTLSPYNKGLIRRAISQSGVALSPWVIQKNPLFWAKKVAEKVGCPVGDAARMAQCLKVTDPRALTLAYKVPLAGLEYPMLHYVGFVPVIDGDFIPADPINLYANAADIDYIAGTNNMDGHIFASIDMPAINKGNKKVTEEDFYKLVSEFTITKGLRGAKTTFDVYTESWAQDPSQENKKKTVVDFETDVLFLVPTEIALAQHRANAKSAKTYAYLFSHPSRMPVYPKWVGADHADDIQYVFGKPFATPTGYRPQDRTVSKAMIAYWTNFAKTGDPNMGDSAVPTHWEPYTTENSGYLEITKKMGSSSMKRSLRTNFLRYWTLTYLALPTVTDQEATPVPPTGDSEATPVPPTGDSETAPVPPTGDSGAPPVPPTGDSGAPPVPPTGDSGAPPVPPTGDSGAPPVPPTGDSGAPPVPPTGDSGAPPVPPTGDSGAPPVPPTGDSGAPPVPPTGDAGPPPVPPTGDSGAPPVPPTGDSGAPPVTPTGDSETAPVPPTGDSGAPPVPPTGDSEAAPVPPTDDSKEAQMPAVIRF

SMILES	IC50 [1]	inhibition in vivo at 100 mg/kg [2, 3]	other results
CCCCCCCCNC(=O)ON=C(C1=CC(=O)C(C)(C)O1)c1ccccc1 [Example 1, 2,2-Dimethyl-5-[[[[(octylamino)carbonyl]oxy]imino]phenylmethyl]-3(2H)-furanone]	1900 nM	39%	
CCCCCCCCCCCCNC(=O)ON=C(C1=CC(=O)C(C)(C)O1)c1ccccc1 [Example 2, 2,2-Dimethyl-5-[[[[(dodecylamino)carbonyl]oxy]imino]phenylmethyl]-3(2H)-furanone]	570 nM	76%	
CC1(C)CCC(NC(=O)ON=C(C2=CC(=O)C(C)(C)O2)c2ccccc2)CC1 [Example 3, 2,2-Dimethyl-5-[[[[[(4,4dimethylcyclohexyl)amino]carbonyl]oxy]imino]phenylmethyl]-3(2H)-furanone]	100 nM	44%	
CCCCCCCC/C=C\CCCCCCCCNC(=O)ON=C(C1=CC(=O)C(C)(C)O1)c1ccccc1 [Example 4, 2,2-Dimethyl-5-[[[[[(Z)-9-octadecenylamino]carbonyl]oxy]imino]phenylmethyl]-3(2H)-furanone]		74%	IC50 ([1]; read-out: IC50 against CEH): 5400 nM
CCCCCCCC/C=C/CCCCCCCCCNC(=O)ON=C(C1=CC(=O)C(C)(C)O1)c1ccccc1 [Example 5, 2,2-Dimethyl-5-[[[[[(E)-10-nonadecenylamino]carbonyl]oxy]imino]phenylmethyl]-3(2H)-furanone]	25000 nM		inhibition in vivo at 25 mg/kg [2, 3]: 39%
CCCCC/C=C/C/C=C/CCCCCCCCNC(=O)ON=C(C1=CC(=O)C(C)(C)O1)c1ccccc1 [Example 6, 2,2-Dimethyl-5-[[[[[(E,E)-9, 12-octadecadienylamino]carbonyl]oxy]imino]phenylmethyl]-3(2H)-furanone]	2700 nM		inhibition in vivo at 25 mg/kg [2, 3]: 50%
CCCCCCCCNC(=O)ON=C(C1=CC(=O)C(C)(C2CCCCC2)O1)c1ccccc1 (centres unmarked) [Example 7, 2-Cyclohexyl-2-methyl-5-[[[[(octylamino)carbonyl]oxy]imino]phenylmethyl]-3(2H)-furanone]	1900 nM	47%	
CCCCCCCCNC(=O)ON=C(C1=CC(=O)C(C)(c2ccccc2)O1)c1ccccc1 (centres unmarked) [Example 8]	130 nM	46%	
CCCCCCCCNC(=O)ON=C(C1=CC(=O)C(C)(c2ccc(Cl)cc2)O1)c1ccccc1 (centres unmarked) [Example 9, 2-(4-Chlorophenyl)-2-methyl-5-[[[[(octylamino)carbonyl]oxy]imino]phenylmethyl]-3(2H)-furanone]	2640 nM	62%	
CCCCCCCCNC(=O)ON=C(C1=CC(=O)C(C)(c2ccc(C(C)(C)C)cc2)O1)c1ccccc1 (centres unmarked) [Example 10, 2-[4-(1,1-Dimethylethyl)phenyl]-2-methyl-5-[[[[(octylamino)carbonyl]oxy]imino]phenylmethyl]-3(2H)-furanone]	12700 nM	46%	
CCCCCCCCNC(=O)ON=C(CCc1ccccc1)C1=CC(=O)C(C)(C)O1 [Example 11]	1500 nM	57%	
CCCCCCCCCCCCNC(=O)ON=C(C1=C(Br)C(=O)C(C)(C)O1)c1ccccc1 [Example 12, 2,2-Dimethyl-4-bromo-5-[[[[(dodecylamino)carbonyl]oxy]imino]phenylmethyl]3(2H)-furanone]	2270 nM	69%	
CCCCCCCCCCCCNC(=O)ON=C(C1=CC(=O)C(C)(C)O1)c1ccc(Cl)cc1 [Example 13]	10000 nM	63%	
O=C(NC1CCCCC1)ON=C(c1ccccc1)c1ccccn1 [Example 14, Phenyl(2-pyridinyl)methanone O-[(cyclohexylamino)carbonyl]oxime]	1400 nM	44%	
CCCCCCCCNC(=O)ON=C(c1ccccn1)c1ccccn1 [Example 16, Di(2-pyridinyl)methanone O-[(octylamino)carbonyl]oxime]	2770 nM		inhibition in vivo at 50 mg/kg [2, 3]: 39%
CCCCCCCCNC(=O)ON=C(c1ccc(F)cc1)c1ccccn1 [Example 17, (4-Fluorophenyl)(2-pyridinyl)methanone O-[(octylamino)carbonyl]oxime]	440 nM		inhibition in vivo at 50 mg/kg [2, 3]: 57%
CCCCCCCCNC(=O)ON=C(c1ccc(OC)cc1)c1ccccn1 [Example 18, (4-Methoxyphenyl)(2-pyridinyl)methanone O-[(octylamino)carbonyl]oxime]	2100 nM		inhibition in vivo at 65 mg/kg [2, 3]: 45%
CCCCNC(=O)ON=C(c1ccc(N(C)C)cc1)c1ccccn1 [Example 20]			% Decrease ^14 C Chol. Absorption at 6 hr in normal rat ([2]; rat, in vivo): 51%
